Series [1] has as its target T1, Phospholipase A2, membrane associated (Homo sapiens, UniProt P14555).
T1 sequence (P14555 whole entry): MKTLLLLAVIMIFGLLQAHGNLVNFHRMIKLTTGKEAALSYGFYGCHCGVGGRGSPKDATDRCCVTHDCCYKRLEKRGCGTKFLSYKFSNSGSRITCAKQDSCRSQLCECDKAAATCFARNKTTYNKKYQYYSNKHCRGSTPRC
In words: Inhibition of sPLA2-2A (unknown origin) using 1-palmitoyl-2-oleoyl-sn-glycero-3-phosphocholine as substrate pretreated for 20 mins followed by substrate addition and measured after 60 mins by NEFA based assay.

The target of series [2] is T2, Group 10 secretory phospholipase A2 (Homo sapiens, UniProt O15496).
T2 sequence (O15496 whole entry): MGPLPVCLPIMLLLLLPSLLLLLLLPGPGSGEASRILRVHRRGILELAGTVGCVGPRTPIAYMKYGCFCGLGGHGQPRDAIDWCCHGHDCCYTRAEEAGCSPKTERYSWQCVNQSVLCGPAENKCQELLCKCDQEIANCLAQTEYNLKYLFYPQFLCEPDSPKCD
In words: Inhibition of sPLA2-10 (unknown origin) using 1-palmitoyl-2-oleoyl-sn-glycero-3-phosphocholine as substrate pretreated for 20 mins followed by substrate addition and measured after 60 mins by NEFA based assay.

The target of another series is T3, Phospholipase A2 group V (Homo sapiens, UniProt P39877).
T3 sequence (P39877 whole entry): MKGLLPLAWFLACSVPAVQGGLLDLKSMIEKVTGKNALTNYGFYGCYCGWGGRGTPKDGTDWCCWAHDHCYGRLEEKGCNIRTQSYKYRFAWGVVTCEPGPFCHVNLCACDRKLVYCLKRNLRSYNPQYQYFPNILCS
In words: Inhibition of sPLA2-5 (unknown origin) using 1-palmitoyl-2-oleoyl-sn-glycero-3-phosphocholine as substrate pretreated for 20 mins followed by substrate addition and measured after 60 mins by NEFA based assay.

Series [3] addresses T2, Group 10 secretory phospholipase A2. In words: Inhibition of recombinant human sPLA2-10 using human HDL as substrate pretreated for 20 mins followed by substrate addition and measured after 60 mins by NEFA based assay.
Series [4] is described as follows: Intrinsic clearance in human hepatocytes assessed per million cells. In kind it is ADME, cell-based, Hepatocyte. To be noted: read-out: CLH.
Another series has as its system Mus musculus. In words: Unbound clearance in C57Bl/6J mouse administered iv or po. It is filed as ADME, organism-based. To be noted: in vivo.
Series [5] is described as follows: Lipophilicity, log D of compound at pH 7.4. The conditions noted are these: buffer.
For series [6], the species on record is Homo sapiens. In words: Selectivity ratio of IC50 for sPLA2-2A (unknown origin) to IC50 for sPLA2-10 (unknown origin).
The species entered for series [7] is Homo sapiens. The series can be described thus: Selectivity ratio of IC50 for sPLA2-5 (unknown origin) to IC50 for sPLA2-10 (unknown origin).
In series [8] the target is T4, Phospholipase A2 group V (Homo sapiens) (UniProt P39877).
T4 sequence (whole entry): T3 sequence (P39877 whole entry)
The series can be described thus: Inhibition of sPLA2-5 (unknown origin) at 10 uM using 1-palmitoyl-2-oleoyl-sn-glycero-3-phosphocholine as substrate pretreated for 20 mins followed by substrate addition and measured after 60 mins by NEFA based assay.

pIC50: −log10 of the molar value. The source made the active and inactive calls. The calls are words filed in the database; no cut-off is given here. A value given as a limit tells only on which side of the number the result lay.

`COC(Cc1cccc(-n2c(C(N)=O)cc3ccc(OC(F)(F)F)cc32)c1)C(=O)O` (stereo in doubt; 11): the pIC50 in [1] was 6.85; in series [2], 7.41; on Phospholipase A2 group V, 5.68; in series [3], 6.85.

With `NC(=O)c1cc2ccc(OC(F)(F)F)cc2n1-c1cccc(CCC(=O)O)c1`, in [4], the hepatocyte CLint stood at 9.33 µL/min/1e6 cells. The molecule further had a CL free with Mus musculus of 1446 mL/min/kg. Moreover, the pIC50 in [3] was 6.51.

In the case of `CC(Cc1ccnc(-n2c(C(N)=O)cc3ccc(OC(F)(F)F)cc32)c1)C(=O)O` (stereo in doubt; 13), the pIC50 in [1] is 7.36; in [2] it was 6.85; on Phospholipase A2 group V it was 6.74; in series [3] it was 6.08.

In turn, `C[C@@H](CC(=O)O)c1cccc(-n2c(C(N)=O)cc3ccc(OC(F)(F)F)cc32)c1` had a logD in [5] of 1.3. The pIC50 in [1] was 6.09; in [2], 7.82; on Phospholipase A2 group V, 5.29; in [3] it was 6.96. For the same molecule, the Ratio IC50 in the series listed under Homo sapiens [6] was 60; in the series listed under Homo sapiens [7], 360. In the series with Mus musculus, the CL free was 1025 mL/min/kg.

On to `CC(CC(=O)O)c1cccc(-n2c(C(N)=O)cc3ccc(OC(F)(F)F)cc32)n1` (single isomer, unassigned; (+)) [listing 1 of 2 here], for which the inhibition entry in series [8] is “inactive”.

As for `CC(CC(=O)O)c1cccc(-n2c(C(N)=O)cc3ccc(OC(F)(F)F)cc32)n1` (single isomer, unassigned; (+)) [listing 2 of 2 here], the pIC50 is 5.42 in [1] and 6.30 in series [2].

Take `C[C@H](CC(=O)O)c1cccc(-n2c(C(N)=O)cc3ccc(OC(F)(F)F)cc32)c1`: the pIC50 in series [1] was 5.41; in series [2] it was 6.70; at Phospholipase A2 group V, 5.07.

`CCC(Cc1cccc(-n2c(C(N)=O)cc3ccc(OC(F)(F)F)cc32)n1)C(=O)O` (stereo in doubt; 15): the pIC50 in series [1] was 6.77; in [2] it was 6.77; on Phospholipase A2 group V, 5.72; in [3] it was 6.48.

Consider `CC(C)(Cc1cccc(-n2c(C(N)=O)cc3ccc(OC(F)(F)F)cc32)n1)C(=O)O`, for which the values for the pIC50 (in series [1]; in series [2]; at Phospholipase A2 group V) were 5.51, 6.49 and under 5.00, respectively.

For `NC(=O)c1cc2ccc(OC(F)(F)F)cc2n1-c1ccc(CCC(=O)O)o1`, the figures for the pIC50 (in series [1]; in [2]; at Phospholipase A2 group V) were 5.72, 6.37 and 5.23, respectively.

For `CC(Cc1cccc(-n2c(C(N)=O)cc3ccc(OC(F)(F)F)cc32)c1)C(=O)O` (stereo in doubt; 10), the pIC50 in [1] was 7.24; in [2], 7.49; on Phospholipase A2 group V it was 6.29; in [3] it was 6.46.

As for `NC(=O)c1cc2ccc(OC(F)(F)F)cc2n1-c1cnn(CCC(=O)O)c1`, the pIC50 was 5.35 in series [1], under 5.00 in series [2] and 5.57 on Phospholipase A2 group V.

Regarding `COC(Cc1cccc(-n2c(C(N)=O)cc3ccc(OC(F)(F)F)cc32)c1)C(=O)O` (stereo in doubt) [listing 1 of 2 here], the inhibition entry in series [8] was “inactive”.

Take `COC(Cc1cccc(-n2c(C(N)=O)cc3ccc(OC(F)(F)F)cc32)c1)C(=O)O` (stereo in doubt) [listing 2 of 2 here]: the pIC50 in series [1] is 5.57; in series [2] it was 6.77.

For the molecule `CC(Cc1cccc(-n2c(C(N)=O)cc3ccc(OC(F)(F)F)cc32)n1)C(=O)O` (stereo in doubt; 14), the pIC50 in series [1] is 7.04; in series [2], 7.19; at Phospholipase A2 group V, 6.29; in series [3], 6.60.

`NC(=O)c1cc2ccc(OC(F)(F)F)cc2n1-c1cc(CCC(=O)O)ccn1`: the pIC50 in series [1] was 6.54; in series [2] it was 6.96; on Phospholipase A2 group V, 6.14; in series [3], 6.19. Further, the hepatocyte CLint in [4] is under 5 µL/min/1e6 cells.

In the case of `CC(Cc1cccc(-n2c(C(N)=O)cc3ccc(OC(F)(F)F)cc32)c1)C(=O)O` (stereo in doubt), the pIC50 in [1] is 6.09; in [2] it was 7.00; on Phospholipase A2 group V, under 5.00; in [3] it was 5.55.

On to `CC(Cc1cccc(-n2c(C(N)=O)cc3ccc(OC(F)(F)F)cc32)n1)C(=O)O` (stereo in doubt), for which the figures for the pIC50 (in [1]; in [2]; at Phospholipase A2 group V) were 5.77, 6.24 and under 5.00, respectively.

For the molecule `CC(Cc1ccnc(-n2c(C(N)=O)cc3ccc(OC(F)(F)F)cc32)c1)C(=O)O` (stereo in doubt), the pIC50 in [1] was 6.47; in series [2] it was 6.44; on Phospholipase A2 group V it was 5.80; in series [3] it was 5.47.

For `NC(=O)c1cc2ccc(OC(F)(F)F)cc2n1-c1cccc(CCC(=O)O)n1`, the pIC50 in series [1] is 6.33; in series [2], 7.54; on Phospholipase A2 group V, 5.64; in series [3] it was 6.60. In [4], the hepatocyte CLint is under 5 µL/min/1e6 cells.

In the case of `NC(=O)c1cc2ccc(OC(F)(F)F)cc2n1-c1ccnc(CCC(=O)O)c1`, the pIC50 in series [1] is 5.92; in series [2], 6.62; on Phospholipase A2 group V, 5.68; in series [3], 5.80. In series [4], the hepatocyte CLint is under 5 µL/min/1e6 cells.

As for `CCC(Cc1cccc(-n2c(C(N)=O)cc3ccc(OC(F)(F)F)cc32)n1)C(=O)O` (stereo in doubt), the pIC50 in series [1] is 6.08; in series [2] it was 6.03; at Phospholipase A2 group V, under 5.00.

`NC(=O)c1cc2ccc(OC(F)(F)F)cc2n1-c1ccn(CCC(=O)O)n1`: the pIC50 is 5.40 in series [1] and 5.32 in series [2]. Moreover, the inhibition result in series [8] is “inactive”.

The pIC50 is −log10 of the IC50, conventionally taken in molar units. One may read the logD as the decadic logarithm of the distribution of all forms, ionised or not, between an organic phase and buffer at a given pH.

These data come from ChEMBL document CHEMBL4196112, “Design of Selective sPLA2-X Inhibitor (-)-2-{2-[Carbamoyl-6-(trifluoromethoxy)-1H-indol-1-yl]pyridine-2-yl}propanoic Acid” (ACS Med Chem Lett, 2018).
